In the CheMixHub viscosity set:
Several values for one entry are separate records, joined by “and”; a condition that tells them apart may be missing. Equal entries are not always repeated.

Experiment: xn = mol fraction of the nth substance listed

CS(C)=O + O
viscosity
Conditions | 313.15 K | 318.15 K | 323.15 K
101 kPa, x1 = 0.01869 | – | – | 0.62 mPa·s
101 kPa, x1 = 0.0406 | – | – | 0.71 mPa·s
101 kPa, x1 = 0.055 | – | 0.847 mPa·s | –
101 kPa, x1 = 0.25 | 2.296 mPa·s | – | –
101 kPa, x1 = 0.26 | 2.24 mPa·s | – | –
101 kPa, x1 = 0.3 | 2.39 mPa·s | – | –
101 kPa, x1 = 0.35 | 2.521 mPa·s | – | –
101 kPa, x1 = 0.41 | 2.48 mPa·s | – | –
101 kPa, x1 = 0.48 | 2.22 mPa·s and 2.34 mPa·s | 2.066 mPa·s | –
101 kPa, x1 = 0.57 | 2.16 mPa·s | – | –
101 kPa, x1 = 0.67 | 1.95 mPa·s | – | –
101 kPa, x1 = 0.73 | 1.72 mPa·s | – | –
101 kPa, x1 = 0.81 | 1.73 mPa·s | – | –
101 kPa, x2 = 0.047 | – | 1.423 mPa·s | –
101 kPa, x2 = 0.089 | – | 1.457 mPa·s | –
101 kPa, x2 = 0.186 | – | 1.553 mPa·s | –
101 kPa, x2 = 0.522 | – | 2.083 mPa·s | –
101 kPa, x2 = 0.59 | – | 2.164 mPa·s | –
101.3 kPa, x1 = 0.012 | 0.718 mPa·s | 0.654 mPa·s | 0.6 mPa·s
101.3 kPa, x2 = 0.1906 | 1.709 mPa·s | – | 1.428 mPa·s
101.3 kPa, x2 = 0.3252 | 1.905 mPa·s | – | 1.577 mPa·s
101.3 kPa, x2 = 0.5203 | 2.313 mPa·s | 2.065 mPa·s | 1.853 mPa·s
101.3 kPa, x2 = 0.6501 | 2.459 mPa·s | – | 1.931 mPa·s
101.3 kPa, x2 = 0.743 | 2.24 mPa·s | 1.976 mPa·s | 1.754 mPa·s
101.3 kPa, x2 = 0.8183 | 1.848 mPa·s | 1.637 mPa·s | 1.46 mPa·s
101.3 kPa, x2 = 0.8668 | 1.513 mPa·s | 1.348 mPa·s | 1.211 mPa·s
101.3 kPa, x2 = 0.9101 | 1.214 mPa·s | 1.09 mPa·s | 0.985 mPa·s
101.3 kPa, x2 = 0.9455 | 0.978 mPa·s | 0.884 mPa·s | 0.805 mPa·s
101.3 kPa, x2 = 0.9751 | 0.794 mPa·s | 0.722 mPa·s | 0.66 mPa·s
